Legend:
Format in all cases: in vivo
[1] = tested on: db/db mice; experiment: Urinary albumin in db/db mice, 12-day treatment; conditions: 12-day study, OA-NO2 10 mg/kg/d via osmotic mini-pump, losartan via diet; for changes of urinary albumin relative to the vehicle group: + increase, − decrease in albuminuria
Protocol: FIG. 1 is a bar graph comparing the amounts of urinary albumin in db/db mice before and after a 12 day (12-d) administration of vehicle, losartan, nitrooleic acid (OA-NO2), or losartan+OA-NO2. Lean mice (non-diabetic) with vehicle treatment were used as controls. losartan was administered via diet, while OA-NO2 and vehicle were each infused via osmotic mini-pump. Lean: n=5; vehicle: n=10; losartan: n=8; OA-NO2: n=9; losartan+OA-NO2: n=10. Data are mean±SE. Male 3-4-month-old db/db mice were from Jackson Laboratories (Bar Harbor, Me.). All animals were housed in an air-conditioned room with a 12-hour light/dark cycle. All procedures and protocols were in accordance with guidelines set by the Laboratory Animal Care Committee at the University of Utah. 9-Nitrooleic acid and 10-nitrooleic acid are two regioisomers of nitrooleic acid (OA-NO2), which are formed by nitration of oleic acid in approximately equal proportions ([…] et al. Chemistry Letters pp. 1109-1112, 1982). The two compounds were purchased from Cayman Chemicals (Ann Arbor, Mich.) (9-nitrooleic acid: Cat #10008042; 10-nitrooleic acid: Cat #10008043) and used as an 1:1 mixture of the isomers. db/db mice were implanted with a 3-week osmotic mini-pump which delivered a vehicle or OA-NO2 at 10 mg/kg/d. Animals were fed with losartan, which is an AT1 blocker. 24-h urine samples were collected before and after the treatment. […] The plus symbol (+) means an increase and the minus symbol (-) indicates a decrease in albuminuria.

[2] = tested on: db/db mice; experiment: Urinary TBARS in db/db mice, 12-day treatment; conditions: OA-NO2 10 mg/kg/d via osmotic mini-pump, losartan via diet; for effect on urinary TBARS (in words): 12 days; for changes of urinary TBARS relative to the vehicle group: after 12 days
Protocol: (§1) FIG. 2 is a bar graph comparing the amounts of urinary thiobarbituric acid reactive substances (TBARS) in db/db mice before and after 12-d infusion with vehicle, losartan, nitrooleic acid (OA-NO2), or losartan+OA-NO2. Lean mice (non-diabetic) with vehicle treatment were used as controls. Losartan was administered via diet, while vehicle and OA-NO2 were each infused via osmotic mini-pump. Lean: n=5; vehicle: n=10; losartan: n=8; OA-NO2: n=9; losartan+OA-NO2: n=10. Data are mean±SE. Male 3-4-month-old db/db mice were from Jackson Laboratories (Bar Harbor, Me.). All animals were housed in an air-conditioned room with a 12-hour light/dark cycle. All procedures and protocols were in accordance with guidelines set by the Laboratory Animal Care Committee at the University of Utah. 9-Nitrooleic acid and 10-nitrooleic acid are two regioisomers of nitrooleic acid (OA-NO2), which are formed by nitration of oleic acid in approximately equal proportions ([…] et al. Chemistry Letters pp. 1109-1112, 1982). The two compounds were purchased from Cayman Chemicals (Ann Arbor, Mich.) (9-nitrooleic acid: Cat #10008042; 10-nitrooleic acid: Cat #10008043) and used as an 1:1 mixture of the isomers. db/db mice were implanted with a 3-week osmotic mini-pump which delivered a vehicle or OA-NO2 at 10 mg/kg/d. Animals were fed with losartan, which is an AT1 blocker. 24-h urine samples were collected before and after the treatment.

[3] = tested on: db/db mice; experiment: Renal TBARS in db/db mice, 12-day treatment; conditions: 12 days, OA-NO2 10 mg/kg/d via osmotic mini-pump, losartan via diet
Source text: as §1, with “Lean” for “FIG. 2 is a bar graph comparing the amounts of urinary thiobarbituric acid reactive substances (TBARS) in db/db mice before and after 12-d infusion with vehicle, losartan, nitrooleic acid (OA-NO2), or losartan+OA-NO2. Lean”, “Losartan was administered via diet, while vehicle and OA-NO2 were each infused via osmotic mini-pump.” left out

[4] = tested on: renal COX-2 protein; experiment: Renal COX-2 protein expression in db/db mice by immunoblotting; conditions: 12 days; for changes of renal COX-2 protein expression relative to the vehicle group: OA-NO2 10 mg/kg/d via osmotic mini-pump, losartan via diet
Protocol: Lean mice (non-diabetic) with vehicle treatment were used as controls. Renal COX-2 protein was analyzed by using immunoblotting.
Male 3-4-month-old db/db mice were from Jackson Laboratories (Bar Harbor, Me.). All animals were housed in an air-conditioned room with a 12-hour light/dark cycle. All procedures and protocols were in accordance with guidelines set by the Laboratory Animal Care Committee at the University of Utah.
9-Nitrooleic acid and 10-nitrooleic acid are two regioisomers of nitrooleic acid (OA-NO2), which are formed by nitration of oleic acid in approximately equal proportions (Hayama et al. Chemistry Letters pp. 1109-1112, 1982). The two compounds were purchased from Cayman Chemicals (Ann Arbor, Mich.) (9-nitrooleic acid: Cat #10008042; 10-nitrooleic acid: Cat #10008043) and used as an 1:1 mixture of the isomers.
db/db mice were implanted with a 3-week osmotic mini-pump which delivered a vehicle or OA-NO2 at 10 mg/kg/d. Animals were fed with losartan, which is an AT1 blocker. 24-h urine samples were collected before and after the treatment.
Renal COX-2 expression in db/db mice treated as above was examined by immunoblotting.

[5] = tested on: renal heme oxygenase-1 (HO-1) protein; experiment: Renal heme oxygenase-1 protein expression in db/db mice by immunoblotting; conditions: 12 days; for changes of renal HO-1 protein expression relative to the vehicle group: OA-NO2 10 mg/kg/d via osmotic mini-pump, losartan via diet
Protocol: as §1, with “Lean” for “FIG. 2 is a bar graph comparing the amounts of urinary thiobarbituric acid reactive substances (TBARS) in db/db mice before and after 12-d infusion with vehicle, losartan, nitrooleic acid (OA-NO2), or losartan+OA-NO2. Lean”, “Renal HO-1 protein” for “Losartan”, “analyzed by using immunoblotting. […]” for “administered via diet, while vehicle and OA-NO2 were each infused via osmotic mini-pump. Lean: n=5; vehicle: n=10; losartan: n=8; OA-NO2: n=9; losartan+OA-NO2: n=10. Data are mean±SE.”, “treatment. Renal HO-1 expression was examined using immunoblotting.” for “treatment.”

Molecule | effect on urinary albumin excretion (in words) [1] | changes of urinary albumin relative to the vehicle group [1] | effect on urinary TBARS (in words) [2] | changes of urinary TBARS relative to the vehicle group [2] | effect on renal TBARS content (in words) [3] | effect on renal COX-2 expression (in words) [4] | changes of renal COX-2 protein expression relative to the vehicle group [4] [%] | effect on renal HO-1 expression (in words) [5] | changes of renal HO-1 protein expression relative to the vehicle group [5]
nitrooleic acid [OA-NO2] | Neither losartan or OA-NO2 alone exhibited a statistically significant effect | −13% | without an effect | +16.5% | trend of reduction but none of these changes reached statistical significance | modest effect | −14.8 | elevated | +48.8%
CCCCc1nc(Cl)c(CO)n1Cc1ccc(-c2ccccc2-c2nn[nH]n2)cc1 [losartan] | Neither losartan or OA-NO2 alone exhibited a statistically significant effect | +7% | without an effect | +33.4% | trend of reduction but none of these changes reached statistical significance | modest effect | −5.3 | elevated | +97.6%
